The text below walks through data of patent US8853424B2 (Japan Science and Technology Agency, priority 2008, dated 2014).

In assay [1] the test system is Truncated N-terminal huntington 150 Q-EGFP-Neuron 2a cells. The assay can be described thus: Measurement of x-Fold (polyglutamine aggregation inhibitory activity). In kind it is cell-based. The method, then:
In the present invention, the polyglutamine aggregation inhibitory activity (x-Fold) can be measured, for example, by the method described in the Example.
The number of the aggregated cells, and the total number of cells were counted by Array Scan V T1 (manufactured by Cellomics, Pittuburg, USA), and the ratio of the aggregated cells to the total number of cells was determined (x-Fold). […]

The next assay relates to transglutaminase (TGase). Kind of assay: Measurement of TG (TGase inhibitory activity, monodansyl cadaverine / N,N-dimethylcasein fluorescence, FDSS 3000). In kind it is biochemical. Put shortly: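 Compound (1 μL of 10 mM stock) added to 0.1 mL reaction: 100 mM HEPES-NaOH pH 7.5, 1 mM CaCl2, 20 μM monodansyl cadaverine, 0.05 mg/mL N,N-dimethylcasein, 5 μg/mL TGase. Rate of fluorescence change at 340 nm measured; DMSO control set to 100; TG50 is the concentration halving activity.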

Setting [2] is: ratio of aggregated cells to total number of cells, compound 20 μM, 20 hr, almost 1 without compound, smaller = stronger inhibition.
Setting [3] is: TGase activity with compound (10 mM, 1 μL in 0.1 ml enzyme reaction solution), DMSO control taken as 100.
Where [4] appears, read: polyglutamine aggregation inhibitory activity, Table 1.
The mark [5] stands for this setting: TGase inhibitory activity value, Table 1.

Regarding `c1ccc(B(OCCN2CCN(CCOB(c3ccccc3)c3ccccc3)CC2)c2ccccc2)cc1` [Example 239, bis(diphenyl piperazino-O,O-ethoxyborane)], in assay [1] (setting [2]), the x-Fold is given as 0.94. In the assay on transglutaminase (TGase) (setting [3]), the “TGase activity remaining (% of DMSO control = 100)” value stood at 126.

Regarding `OB(c1cccc(Cl)c1)c1cccc(Cl)c1` [Example 241, di(3-chlorophenyl)borinic acid], in assay [1] (setting [2]), the x-Fold was determined as 1.10. Also, the “TGase activity remaining (% of DMSO control = 100)” value in the assay on transglutaminase (TGase) (setting [3]) is listed as 67.

Turning to `Cc1ccc(Cl)cc1B(OCC1CCCCN1)c1cc(Cl)ccc1C` (stereo not drawn) [Example 242, di(5-chloro-2-methylphenyl) 2-piperidinomethylborinate], the x-Fold in assay [1] (setting [2]) was 1.17. Also, in the assay on transglutaminase (TGase) (setting [3]), the “TGase activity remaining (% of DMSO control = 100)” value turned out to be 98.

For the compound `NCCCC(N)C(=O)OB(c1ccccc1)c1ccccc1` (stereo not drawn) [Example 245, diphenyl(ornithine-O,N)borane], the x-Fold was found to be 0.91 in assay [1] (polyglutamine aggregation inhibitory activity, Table 1, listed as 921) and 0.91 in assay [1] (setting [2]). Further, the “TGase activity remaining (% of DMSO control = 100)” value is reported as 94 in the assay with transglutaminase (TGase) (setting [3]) and 94 in the assay on transglutaminase (TGase) (TGase inhibitory activity value, Table 1, listed as 921).

Turning to `CCCCNCCOB(c1cc(Cl)ccc1C)c1cc(Cl)ccc1C` [Example 246, di(5-chloro-2-methylphenyl) 2-butylaminoethylborinate], the x-Fold in assay [1] (setting [2]) is on record as 0.67. In addition, in the assay with transglutaminase (TGase) (setting [3]), the “TGase activity remaining (% of DMSO control = 100)” value came to 94.

With `Cc1ccc(B(OCCC2CCCCN2)c2ccc(C)c(Cl)c2)cc1Cl` (stereo not drawn) [Example 248], the x-Fold in assay [1] (setting [2]) worked out at 0.87. For the same compound, the “TGase activity remaining (% of DMSO control = 100)” value in the assay with transglutaminase (TGase) (setting [3]) turned out to be 103.

In the case of `Cc1ccc(B(O)c2ccc(Oc3ccc(B(O)c4ccc(C)c(Cl)c4)cc3)cc2)cc1Cl` [Example 251, bis(3-chloro-4-methylphenyl hydroxyborylphenyl)ether], the x-Fold in assay [1] (setting [2]) was 0.83. Moreover, in the assay with transglutaminase (TGase) (setting [3]), the “TGase activity remaining (% of DMSO control = 100)” value stood at 121.

As to `NCC(=O)OB(c1ccccc1)c1ccccc1` [Example 254, diphenyl(glycinate-O,N)borane], the x-Fold in assay [1] (setting [4]) and in assay [1] (setting [2]) was 0.95 in each case. Further, the “TGase activity remaining (% of DMSO control = 100)” value in the assay on transglutaminase (TGase) (setting [3]) and with transglutaminase (TGase) (setting [5]) was 101 throughout.

On to `O=C(O)CC1[NH2+][B-](c2ccccc2)(c2ccccc2)OC1=O` (stereo not drawn) [Example 257], for which the x-Fold in assay [1] (setting [4]) and in assay [1] (setting [2]) was 0.98 in each case. For the same compound, the “TGase activity remaining (% of DMSO control = 100)” value with transglutaminase (TGase) (setting [3]) and in the assay on transglutaminase (TGase) (setting [5]) was 103 each time.

For the compound `CC(C)CC(N)C(=O)OB(c1ccccc1)c1ccccc1` (stereo not drawn) [Example 261, diphenyl(leucinate-O,N)borane], the x-Fold in assay [1] (setting [4]) and in assay [1] (setting [2]) was 0.89 throughout. Moreover, the “TGase activity remaining (% of DMSO control = 100)” value with transglutaminase (TGase) (setting [3]) and in the assay with transglutaminase (TGase) (setting [5]) was 109 throughout.

`CC(O)C(N)C(=O)OB(c1ccccc1)c1ccccc1` (stereo not drawn) [Example 265, diphenyl(threoninate-O,N)borane]: the x-Fold in assay [1] (setting [4]) and in assay [1] (setting [2]) was 0.94 each time. For the same compound, the “TGase activity remaining (% of DMSO control = 100)” value in the assay on transglutaminase (TGase) (setting [3]) and in the assay on transglutaminase (TGase) (setting [5]) was 112 each time.

For the compound `NC(=O)CCC(N)C(=O)OB(c1ccccc1)c1ccccc1` (stereo not drawn) [Example 276, diphenyl(glutaminate-O,N)borane], the x-Fold in assay [1] (polyglutamine aggregation inhibitory activity, Table 1, listed as 854) worked out at 0.8; in assay [1] (setting [2]), 0.8. The “TGase activity remaining (% of DMSO control = 100)” value in the assay on transglutaminase (TGase) (setting [3]) is given as 105; in the assay with transglutaminase (TGase) (TGase inhibitory activity value, Table 1, listed as 854), 105.

For the compound `O=C(OB(c1ccccc1)c1ccccc1)C1CNCCN1` (stereo not drawn) [Example 279, diphenyl(2-piperazinecarboxy)borane], the x-Fold in assay [1] (setting [4]) and in assay [1] (setting [2]) was 0.98 each time. Besides, the “TGase activity remaining (% of DMSO control = 100)” value in the assay on transglutaminase (TGase) (setting [3]) and in the assay with transglutaminase (TGase) (setting [5]) was 103 each time.

Take `NCCC(N)C(=O)OB(c1ccccc1)c1ccccc1` (stereo not drawn) [Example 280, diphenyl(2,4-diaminolacetic acid)borane]: the x-Fold in assay [1] (polyglutamine aggregation inhibitory activity, Table 1, listed as 897) is reported as 0.88; in assay [1] (setting [2]), 0.88. Also, the “TGase activity remaining (% of DMSO control = 100)” value with transglutaminase (TGase) (setting [3]) was 98; in the assay on transglutaminase (TGase) (TGase inhibitory activity value, Table 1, listed as 897), 98.

Regarding `Cc1ccc(B(OC(=O)c2ccccn2)c2ccc(C)c(Cl)c2)cc1Cl` [Example 281, di(3-chloro-4-methylphenyl)-(picolinate-O,N)borane], the x-Fold in assay [1] (setting [2]) was 0.94. Besides, the “TGase activity remaining (% of DMSO control = 100)” value in the assay with transglutaminase (TGase) (setting [3]) was 77.

As to `O=C(OB(c1ccc(C(F)(F)F)cc1)c1ccc(C(F)(F)F)cc1)c1ccccn1` [Example 284, di(4-trifluoromethylphenyl) (picolinate-O,N)borane], the x-Fold in assay [1] (setting [4]) and in assay [1] (setting [2]) was 1.03 in each case. For the same compound, the “TGase activity remaining (% of DMSO control = 100)” value with transglutaminase (TGase) (setting [3]) and in the assay on transglutaminase (TGase) (setting [5]) was 89 each time.

On to `Cc1ccc(B(OC(=O)C(N)CCCNC(N)=O)c2ccc(C)c(Cl)c2)cc1Cl` (stereo not drawn) [Example 287, di(3-chloro-4-methylphenyl)(citrullinate-O,N)borane], for which the x-Fold in assay [1] (setting [4]) and in assay [1] (setting [2]) was 1.00 throughout. Besides, the “TGase activity remaining (% of DMSO control = 100)” value in the assay with transglutaminase (TGase) (setting [3]) and in the assay with transglutaminase (TGase) (setting [5]) was 146 each time.

Take `Cc1ccc(B(OC(=O)C(N)CCN)c2ccc(C)c(Cl)c2)cc1Cl` (stereo not drawn) [Example 293, di(3-chloro-4-methylphenyl)(2,4-diaminobutyrate-O,N)borane]: the x-Fold in assay [1] (setting [4]) and in assay [1] (setting [2]) was 0.91 in each case. Further, the “TGase activity remaining (% of DMSO control = 100)” value in the assay with transglutaminase (TGase) (setting [3]) and in the assay on transglutaminase (TGase) (setting [5]) was 116 each time.

As for `OB(c1ccc(COCCOc2ccc(B(O)c3cccs3)cc2)cc1)c1cccs1` [Example 296, (4-(2-thiophenehydroxyboryl)phenoxyethyl)(4′-(2-thiophenehydroxyboryl)benzyl)ether], the x-Fold in assay [1] (setting [4]) and in assay [1] (setting [2]) was 0.74 in each case. In addition, the “TGase activity remaining (% of DMSO control = 100)” value in the assay with transglutaminase (TGase) (setting [3]) and with transglutaminase (TGase) (setting [5]) was 97 in each case.

As for `OB(c1ccccc1)c1ccccc1B(O)c1ccccc1` [Example 297, 1,2-di(phenylhydroxyboryl)benzene], the x-Fold in assay [1] (polyglutamine aggregation inhibitory activity, Table 1, listed as 806) came to 0.69; in assay [1] (setting [2]), 0.69. The “TGase activity remaining (% of DMSO control = 100)” value in the assay on transglutaminase (TGase) (setting [3]) is reported as 89; in the assay on transglutaminase (TGase) (TGase inhibitory activity value, Table 1, listed as 806), 89.

Turning to `NCCOB(c1ccccc1)c1ccccc1B(OCCN)c1ccccc1` [Example 298, 1,2-di(phenylaminoethoxyboryl)benzene], the x-Fold in assay [1] (setting [4]) and in assay [1] (setting [2]) was 1.01 throughout. The “TGase activity remaining (% of DMSO control = 100)” value in the assay on transglutaminase (TGase) (setting [3]) and in the assay on transglutaminase (TGase) (setting [5]) was 101 each time.

For `NC(=O)CCC(N)C(=O)OB(c1ccsc1)c1ccc2sc3ccc(B(OC(=O)C(N)CCC(N)=O)c4ccsc4)cc3c2c1` (stereo not drawn) [Example 304, 2,8-di(3-thiophenylglutamine-O,N boryl)dibenzothiophene], the x-Fold in assay [1] (setting [4]) and in assay [1] (setting [2]) was 0.90 throughout. Besides, the “TGase activity remaining (% of DMSO control = 100)” value in the assay with transglutaminase (TGase) (setting [3]) and with transglutaminase (TGase) (setting [5]) was 47 throughout.

On to `N#Cc1ccc(B(O)c2ccc(C#N)cc2)cc1` [Example 305, 4,4′-di(cyano-phenyl)borinic acid], for which the x-Fold came to 0.98 in assay [1] (polyglutamine aggregation inhibitory activity, Table 1, listed as 6095) and 0.98 in assay [1] (setting [2]). The “TGase activity remaining (% of DMSO control = 100)” value in the assay on transglutaminase (TGase) (setting [3]) is recorded as 94; in the assay on transglutaminase (TGase) (TGase inhibitory activity value, Table 1, listed as 6095) it was 94.
